From patent publication US20260015342A1, “HERBICIDAL PYRIMIDINONE DERIVATIVES” (SYNGENTA CROP PROTECTION AG, priority 2022, published 2026)

Key:
Format in all cases: in vivo
Details in all cases: 250 g/ha, evaluated after 13 days
ECHCG [1] = assay: Post-emergence biological efficacy, glasshouse
Procedure: (§1) Seeds of weeds and/or crops were sown in standard soil in pots. After cultivation for 14 days under controlled conditions in a glasshouse (at 24/19° C., day/night; 16 hours light), the plants were sprayed with an aqueous spray solution derived from the formulation of the technical active ingredient in a small amount of acetone and a special solvent and emulsifier mixture referred to as IF50 (11.12% Emulsogen EL360 TM+44.44% N-methylpyrrolidone+44.44% Dowanol DPM glycol ether), to create a 50 g/I solution which was then diluted using 0.2% Genapol X080 as diluent to give the desired final dose of test compound.
(§2) The test plants were then grown under controlled conditions in the glasshouse (at 24/18° C., day/night; 15 hours light; 50% humidity) and watered twice daily. After 13 days the test was evaluated (100=total damage to plant; 0=no damage to plant).

IPOHE [2] = assay: Post-emergence biological efficacy, glasshouse
Procedure: as §1, §2

CHEAL = assay: Post-emergence biological efficacy, glasshouse
Procedure: as §1, §2

LOLPE [3] = assay: Post-emergence biological efficacy, glasshouse
Procedure: as §1, §2

AMAPA [4] = assay: Post-emergence biological efficacy, glasshouse
Procedure: as §1, §2

ELEIN = assay: Post-emergence biological efficacy, glasshouse
Procedure: as §1, §2

SETFA [5] = assay: Post-emergence biological efficacy, glasshouse
Procedure: as §1, §2

DIGSA = assay: Post-emergence biological efficacy, glasshouse
Procedure: as §1, §2

EPHHL [6] = assay: Post-emergence biological efficacy, glasshouse
Procedure: as §1, §2

ECHCG [7] = assay: Pre-emergence biological efficacy, glasshouse
Procedure: as §1, with “one day” for “14 days”
(§3) The test plants were then grown under controlled conditions in the glasshouse (at 24/18° C., day/night; […]; 50% humidity) and watered twice daily. After 13 days the test was evaluated (100=total damage to plant; 0=no damage to plant).

IPOHE [8] = assay: Pre-emergence biological efficacy, glasshouse
Procedure: as §1, with “one day” for “14 days”
as §3

LOLPE [9] = assay: Pre-emergence biological efficacy, glasshouse
Procedure: as §1, with “one day” for “14 days”
as §3

AMAPA [10] = assay: Pre-emergence biological efficacy, glasshouse
Procedure: as §1, with “one day” for “14 days”
as §3

SETFA [11] = assay: Pre-emergence biological efficacy, glasshouse
Procedure: as §1, with “one day” for “14 days”
as §3

EPHHL [12] = assay: Pre-emergence biological efficacy, glasshouse
Procedure: as §1, with “one day” for “14 days”
as §3

Row | Compound | damage to plant (100=total damage to plant; 0=no damage to plant), ECHCG (ECHCG [1]) | damage to plant (100=total damage to plant; 0=no damage to plant), IPOHE (IPOHE [2]) | damage to plant (100=total damage to plant; 0=no damage to plant), CHEAL (CHEAL) | damage to plant (100=total damage to plant; 0=no damage to plant), LOLPE (LOLPE [3]) | damage to plant (100=total damage to plant; 0=no damage to plant), AMAPA (AMAPA [4]) | damage to plant (100=total damage to plant; 0=no damage to plant), ELEIN (ELEIN) | damage to plant (100=total damage to plant; 0=no damage to plant), SETFA (SETFA [5]) | damage to plant (100=total damage to plant; 0=no damage to plant), DIGSA (DIGSA) | damage to plant (100=total damage to plant; 0=no damage to plant), EPHHL (EPHHL [6]) | damage to plant (100=total damage to plant; 0=no damage to plant), ECHCG (ECHCG [7]) | damage to plant (100=total damage to plant; 0=no damage to plant), IPOHE (IPOHE [8]) | damage to plant (100=total damage to plant; 0=no damage to plant), LOLPE (LOLPE [9]) | damage to plant (100=total damage to plant; 0=no damage to plant), AMAPA (AMAPA [10]) | damage to plant (100=total damage to plant; 0=no damage to plant), SETFA (SETFA [11]) | damage to plant (100=total damage to plant; 0=no damage to plant), EPHHL (EPHHL [12])
1 | CCOC(=O)C1(C)CC(c2cc(-n3c(OC)nc(C(F)(F)F)cc3=O)c(F)cc2Cl)=NO1 (racemic) [Compound 11, Ethyl 3-[2-chloro-4-fluoro-5-[2-methoxy-6-oxo-4-(trifluoromethyl)pyrimidin-1-yl]phenyl]-5-methyl-4H-isoxazole-5-carboxylate] | 100 | 100 | 100 | 100 | 100 | 100 | 100 | 100 | 100 | 100 | 80 | 80 | 100 | 100 | 100
2 | CCOC(=O)[C@@]1(C)CC(c2cc(-n3c(OC)nc(C(F)(F)F)cc3=O)c(F)cc2Cl)=NO1 [11 (R-enantiomer), Ethyl (5R)-3-[2-chloro-4-fluoro-5-[2-methoxy-6-oxo-4-(trifluoromethyl)pyrimidin-1-yl]phenyl]-5-methyl-4H-isoxazole-5-carboxylate] | 100 | 100 | 100 | 100 | 100 | 100 | 80 | 100 | 90 | 90 | 70 | 10 | 10 | 90 | 50
3 | CCOC(=O)[C@]1(C)CC(c2cc(-n3c(OC)nc(C(F)(F)F)cc3=O)c(F)cc2Cl)=NO1 [11 (S-enantiomer), ethyl (5S)-3-[2-chloro-4-fluoro-5-[2-methoxy-6-oxo-4-(trifluoromethyl)pyrimidin-1-yl]phenyl]-5-methyl-4H-isoxazole-5-carboxylate] | 100 | 100 | 100 | 100 | 100 | 100 | 100 | 100 | 100 | 100 | 80 | 40 | 100 | 100 | 90
